The test concerns bacteria.
[1] abbreviates: A. calcoaceticus AC002, agarose dilution.
The mark [2] stands for this setting: E. cloacae ECL007, agarose dilution.
[3] abbreviates: E. coli ECO005, agarose dilution.
Setting [4] is: E. faecalis EFS001, agarose dilution.
Setting [5] is: E. faecalis EFS008, agarose dilution.
Setting [6] is: K. pneumoniae KP001, agarose dilution.
Where [7] appears, read: P. aeruginosa PA004, agarose dilution.
[8] abbreviates: S. aureus SA014, agarose dilution.
Setting [9] is: S. aureus SA093, agarose dilution.
The mark [10] stands for this setting: S. epidermidis SE010, agarose dilution.
Setting [11] is: S. maltophilia SMA002, agarose dilution.
[12] abbreviates: S. marcescens SMS003, agarose dilution.

Read-outs that look alike come from different tables or passages of the source.

As for I L R R W P W W P W R R R [MBI 11B9ACN], the MIC (commonly the lowest concentration that inhibits growth of the organism) (A. calcoaceticus AC001) is 32 µg/mL; the MIC (E. coli ECO003) worked out at 8 µg/mL; the MIC (E. faecalis EFS004) amounted to 8 µg/mL; the MIC (E. faecium EFM001) came to 4 µg/mL; the MIC (K. pneumoniae KP002) came to 32 µg/mL; the MIC (P. aeruginosa PA005) is above 128 µg/mL. Moreover, the MIC by setting is: (S. aureus SA019) 2 µg/mL; (S. epidermidis SE002) 2 µg/mL; (S. maltophilia SMA001) 16 µg/mL; (S. marcescens SMS004) above 128 µg/mL.
With I L K K W P W W P W R R K [MBI 11CNW1], the MIC is 8 µg/mL (A. calcoaceticus AC002); 64 µg/mL (E. cloacae ECL007); 32 µg/mL (E. coli ECO005); 8 µg/mL (E. faecalis EFS001); 32 µg/mL (K. pneumoniae KP001); 64 µg/mL (P. aeruginosa PA004). For the same substance, the minimum inhibitory concentration (MIC) was 4 µg/mL (S. aureus SA010), 32 µg/mL (S. maltophilia SMA002) and above 128 µg/mL (S. marcescens SMS003).
For K R R W P W W P W R L I [MBI 11B7CNR], the MIC (A. calcoaceticus AC002) is 4 µg/mL; the MIC (E. cloacae ECL007) was 64 µg/mL; the MIC (E. coli ECO005) turned out to be 8 µg/mL; the MIC (E. faecalis EFS001) was 4 µg/mL; the MIC (K. pneumoniae KP001) is 8 µg/mL; the MIC (P. aeruginosa PA004) was 64 µg/mL. The MIC is 2 µg/mL (S. aureus SA093), 4 µg/mL (S. epidermidis SE010), 32 µg/mL (S. maltophilia SMA002) and above 128 µg/mL (S. marcescens SMS003).
As for I L K K W P W [MBI 11D10M8], the MIC is 32 µg/mL (E. faecalis EFS002), 32 µg/mL (E. faecium EFM003) and 32 µg/mL (S. aureus SA008).
As to I L K K W P W W P W R R K [MBI 11M4], the MIC by setting is: (E. faecalis EFS001) 32 µg/mL; (E. faecium EFM001) 32 µg/mL; (S. aureus SA008) 8 µg/mL.
Take I L K K W P W W P W R R [MBI 11G7ACN]: the MIC (A. calcoaceticus AC002) was 4 µg/mL; the MIC (E. cloacae ECL007) is above 32 µg/mL; the MIC (E. coli ECO002) amounted to 16 µg/mL; the MIC (E. faecalis EFS008) came to 32 µg/mL; the MIC (E. faecium EFM001) amounted to 8 µg/mL; the MIC (K. pneumoniae KP002) is above 32 µg/mL. Moreover, the minimum inhibitory concentration (MIC) by setting is: (P. aeruginosa PA006) above 32 µg/mL; (S. aureus SA010) 1 µg/mL; (S. epidermidis SE002) 4 µg/mL; (S. maltophilia SMA001) 32 µg/mL; (S. marcescens SMS004) above 32 µg/mL.
For the substance I L R W P W W P W A R K [MBI 11H10CN], the MIC is, setting by setting: under setting [1], 4 µg/mL; under setting [2], above 128 µg/mL; under setting [3], 16 µg/mL; under setting [4], 2 µg/mL; under setting [5], 8 µg/mL; under setting [6], 16 µg/mL. Also, the MIC was above 128 µg/mL under setting [7]; 4 µg/mL under setting [8]; 1 µg/mL under setting [9]; 4 µg/mL under setting [10]; 64 µg/mL under setting [11]; above 128 µg/mL under setting [12].
Turning to “I L K K W P W W P W R R I M [MBI 11D13H]”, the MIC (A. calcoaceticus AC001) was 64 µg/mL; the MIC (E. cloacae ECL007) was above 64 µg/mL; the MIC (E. coli ECO002) was 32 µg/mL; the MIC (E. faecalis EFS004) worked out at 16 µg/mL; the minimum inhibitory concentration (MIC) (K. pneumoniae KP002) was above 64 µg/mL; the MIC (P. aeruginosa PA004) is above 64 µg/mL. The MIC by setting is: (S. aureus SA025) 4 µg/mL; (S. maltophilia SMA002) above 64 µg/mL; (S. marcescens SMS004) above 64 µg/mL.
With I L K K W V W W V W R R K [MBI 11F1CN], the MIC is above 128 µg/mL (E. cloacae ECL007); 8 µg/mL (E. coli ECO003); 16 µg/mL (E. faecalis EFS004); 2 µg/mL (E. faecium EFM003); 32 µg/mL (K. pneumoniae KP002); 64 µg/mL (P. aeruginosa PA004). This substance displayed an MIC (S. aureus SA009) of 2 µg/mL, an MIC (S. marcescens SBSM1) above 128 µg/mL and an MIC (S. marcescens SMS003) above 128 µg/mL.
Turning to I L R Y V Y Y V Y R R K [MBI 11A8CN], the MIC (A. calcoaceticus AC002) is 8 µg/mL; the MIC (E. cloacae ECL007) was above 128 µg/mL; the MIC (E. coli ECO005) stood at 32 µg/mL; the MIC (E. faecalis EFS001) was found to be 4 µg/mL; the minimum inhibitory concentration (MIC) (K. pneumoniae KP001) came to 128 µg/mL; the MIC (P. aeruginosa PA004) was above 128 µg/mL. Further, the MIC runs as follows: (S. aureus SA093) 1 µg/mL; (S. epidermidis SE010) 6 µg/mL; (S. maltophilia SMA002) 32 µg/mL; (S. marcescens SMS003) above 128 µg/mL.
In the case of I L K K W P W W A W R R K [MBI 11C4CN], the minimum inhibitory concentration (MIC) is 4 µg/mL (A. calcoaceticus AC002); above 128 µg/mL (E. cloacae ECL007); 32 µg/mL (E. coli ECO005); 32 µg/mL (E. faecalis EFS002); 2 µg/mL (E. faecium EFM003); above 128 µg/mL (K. pneumoniae KP001). Also, the minimum inhibitory concentration (MIC) is above 128 µg/mL (P. aeruginosa PA005); 4 µg/mL (S. aureus SA009); 4 µg/mL (S. epidermidis SE002); 64 µg/mL (S. maltophilia SMA002); above 128 µg/mL (S. marcescens SMS004).
Consider P W W P W R R K [MBI 11D3CN], for which the MIC was above 128 µg/mL (A. calcoaceticus AC001); above 128 µg/mL (E. cloacae ECL007); 64 µg/mL (E. coli ECO002); 32 µg/mL (E. faecalis EFS002); 8 µg/mL (E. faecium EFM003); above 128 µg/mL (K. pneumoniae KP002). The MIC reads like this: (P. aeruginosa PA024) above 128 µg/mL; (S. aureus SA009) 8 µg/mL; (S. maltophilia SMA001) 64 µg/mL; (S. marcescens SMS004) above 128 µg/mL.
Consider I L K K W P W W P R R K [MBI 11G6ACN], for which the minimum inhibitory concentration (MIC) is 4 µg/mL (A. calcoaceticus AC002); 64 µg/mL (E. coli ECO005); above 128 µg/mL (E. faecalis EFS008); 64 µg/mL (S. aureus SA014); 32 µg/mL (S. epidermidis SE010); above 128 µg/mL (S. maltophilia SMA002).
As for I L K K W P W W P W R R k [MBI 11E2CN], the MIC (A. calcoaceticus AC002) was 4 µg/mL; the MIC (E. cloacae ECL007) is above 128 µg/mL; the MIC (E. coli ECO002) stood at 8 µg/mL; the MIC (E. faecalis EFS002) stood at 32 µg/mL; the MIC (E. faecium EFM001) stood at 16 µg/mL; the MIC (K. pneumoniae KP002) turned out to be 64 µg/mL. The MIC (P. aeruginosa PA001) was above 128 µg/mL; the MIC (S. aureus SA016) stood at 2 µg/mL; the minimum inhibitory concentration (MIC) (S. epidermidis SE010) came to 4 µg/mL; the MIC (S. maltophilia SMA001) was 64 µg/mL; the MIC (S. marcescens SMS004) was above 128 µg/mL.
I L K W P W W P W R K [MBI 11B5CN]: the MIC is, setting by setting: under setting [1], 4 µg/mL; under setting [2], above 128 µg/mL; under setting [3], 16 µg/mL; under setting [4], 2 µg/mL; (E. faecalis EFS002) 16 µg/mL; under setting [5], 8 µg/mL. The minimum inhibitory concentration (MIC) runs as follows: (E. faecium EFM002) 1 µg/mL; under setting [6], 16 µg/mL; under setting [7], above 128 µg/mL; (S. aureus SA005) 2 µg/mL; under setting [8], 2 µg/mL; under setting [9], 1 µg/mL. Also, the MIC is 1 µg/mL under setting [10], 64 µg/mL under setting [11] and above 128 µg/mL under setting [12].
For the substance I L K K W P W W P W R R M [MBI 11D12H], the MIC by setting is: (A. calcoaceticus AC001) above 64 µg/mL; (E. cloacae ECL007) above 64 µg/mL; (E. coli ECO003) 64 µg/mL; (E. faecalis EFS004) 16 µg/mL; (K. pneumoniae KP002) above 64 µg/mL; (P. aeruginosa PA004) above 64 µg/mL. Also, the MIC was 16 µg/mL (S. aureus SA014), above 64 µg/mL (S. maltophilia SMA002) and above 64 µg/mL (S. marcescens SMS004).
On to I L K K W P W W W R R K [MBI 11G5CN], for which the MIC reads like this: (A. calcoaceticus AC002) 4 µg/mL; (E. cloacae ECL007) above 128 µg/mL; (E. coli ECO003) 16 µg/mL; (E. faecalis EFS002) 16 µg/mL; (E. faecium EFM002) 8 µg/mL; (K. pneumoniae KP001) above 128 µg/mL. Besides, the minimal inhibitory concentration (MIC) was above 128 µg/mL (P. aeruginosa PA003); 4 µg/mL (S. aureus SA012); 2 µg/mL (S. epidermidis SE002); 64 µg/mL (S. maltophilia SMA002); above 128 µg/mL (S. marcescens SMS004).
For the substance I L K K I P I I P I R R K [MBI 11A2CN], the MIC was above 128 µg/mL (A. calcoaceticus AC001); above 128 µg/mL (E. cloacae ECL007); above 128 µg/mL (E. coli ECO003); above 128 µg/mL (E. faecalis EFS002); 16 µg/mL (E. faecium EFM003); above 128 µg/mL (K. pneumoniae KP002). Besides, the minimal inhibitory concentration (MIC) (P. aeruginosa PA004) was above 128 µg/mL, the MIC (S. aureus SA004) was found to be 8 µg/mL, the minimal inhibitory concentration (MIC) (S. maltophilia SMA001) was above 128 µg/mL and the minimum inhibitory concentration (MIC) (S. marcescens SMS003) is above 128 µg/mL.
In the case of “ILKKWPWWPWRRIMILKKAGS [MBI 11D6CN]”, the minimum inhibitory concentration (MIC) reads like this: (A. calcoaceticus AC002) 4 µg/mL; (E. cloacae ECL007) above 32 µg/mL; (E. coli ECO002) 32 µg/mL; (E. faecalis EFS002) 4 µg/mL; (E. faecium EFM003) 1 µg/mL; (K. pneumoniae KP002) above 64 µg/mL. Further, the MIC was above 64 µg/mL (P. aeruginosa PA024); 8 µg/mL (S. aureus SA009); 4 µg/mL (S. epidermidis SE010); above 64 µg/mL (S. maltophilia SMA001); above 64 µg/mL (S. marcescens SMS004).
